# Measured values taken from US20240116985A1, “STAPLED PEPTIDES AND METHODS THEREOF” (priority 2020, published 2024).
# Read-outs that look alike come from different tables or passages of the source.
# Assays:
# [1] = target: T1, full-length beta-Catenin (Uniprot ID P35222) (Homo sapiens, UniProt P35222); experiment: Fluorescence polarization IC50 (beta-catenin / 5FAM-TCF4 10-53 competition); format: binding
# T1 construct: 10 nM full-length beta-Catenin (Uniprot ID P35222)
# T1 sequence (P35222 1-781): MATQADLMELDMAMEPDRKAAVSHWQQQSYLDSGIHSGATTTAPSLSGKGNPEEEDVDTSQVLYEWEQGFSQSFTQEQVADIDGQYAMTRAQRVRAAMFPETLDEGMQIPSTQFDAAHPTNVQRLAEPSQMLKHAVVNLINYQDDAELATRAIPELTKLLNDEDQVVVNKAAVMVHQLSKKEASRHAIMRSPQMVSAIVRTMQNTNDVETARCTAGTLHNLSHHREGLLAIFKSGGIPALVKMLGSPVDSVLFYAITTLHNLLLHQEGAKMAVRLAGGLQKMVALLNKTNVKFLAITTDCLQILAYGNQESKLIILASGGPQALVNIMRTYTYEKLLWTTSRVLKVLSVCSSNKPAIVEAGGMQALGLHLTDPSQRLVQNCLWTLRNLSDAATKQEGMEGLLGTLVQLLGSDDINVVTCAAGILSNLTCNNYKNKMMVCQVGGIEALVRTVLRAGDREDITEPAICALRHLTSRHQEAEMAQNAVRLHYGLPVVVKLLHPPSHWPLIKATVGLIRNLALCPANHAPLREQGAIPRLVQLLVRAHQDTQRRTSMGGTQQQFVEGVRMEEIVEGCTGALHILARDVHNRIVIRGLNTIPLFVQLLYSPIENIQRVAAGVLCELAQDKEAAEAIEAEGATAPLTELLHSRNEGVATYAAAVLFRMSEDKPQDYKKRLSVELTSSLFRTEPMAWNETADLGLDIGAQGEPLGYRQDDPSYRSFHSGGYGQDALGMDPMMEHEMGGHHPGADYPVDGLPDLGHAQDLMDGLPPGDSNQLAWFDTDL
# [2] = CHI Log D procedure; format: physicochemical; details: for CHI Log D: pH 7.4; for chromatographic logD: pH 7.4, CHI Log D
# [3] = target: T2, full-length B-Catenin (Uniprot ID P35222) (Homo sapiens, UniProt P35222); experiment: Alphascreen binding assay (beta-catenin / biotin-TCF4 10-53)
# T2 construct: 65 nM full-length B-Catenin (Uniprot ID P35222)
# T2 sequence (P35222 1-781): T1 sequence (P35222 1-781)
# In short: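 AlphaScreen (Ni-chelate beads) competition in 50 mM Tris pH 8.0, 250 mM NaCl with detergents and 0.1% BSA. Peptide titrated 10 uM–5 nM against 65 nM human β-catenin bound to 10 nM biotinylated TCF4 10-53, 15 min then 60 min with beads, both at 20 °C; 1:1 Hill-slope fit.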
# [4] = Table E2-1, read-out: beta-Catenin FP IC50
# [5] = fluorescence polarization, beta-catenin, read-out: FP EC50
Compound,"IC50 [1, 4] [nM]","IC50 [1, 5] [nM]",CHI Log D [2],EC50 [3] [nM],chromatographic logD [2]
"CC[C@H](C)[C@@H]1NC(=O)[C@H](CC(=O)O)NC(=O)[C@]2(CC=CCCCC3(CCCC=CCCCCCC[C@@](C)(C(=O)N[C@@H](Cc4ccccc4)C(=O)N[C@@H](Cc4c[nH]c5ccccc45)C(N)=O)NC(=O)[C@H](CCC(N)=O)NC(=O)[C@H](Cc4ccccc4)NC(=O)[C@H](C)NC(=O)[C@H](C)NC(=O)[C@H](CCC(=O)O)NC(=O)[C@H](CC(=O)O)NC3=O)NC1=O)CCCN2C(C)=O (stereo partly drawn) [I-193, Ac-PL3-Asp-Ile-B5-Asp-Glu-Ala-Ala-Phe-Gln-S8-Phe-Trp-NH2]",533,533,2.462,76,
"CC[C@H](C)[C@H](NC(=O)[C@H](CC(=O)O)NC(=O)[C@H](C)NC(C)=O)C(=O)N[C@]1(C)CCN(C)C(=O)OCC=CCCCCC[C@@](C)(C(=O)N[C@@H](Cc2ccccc2)C(=O)N[C@@H](Cc2c[nH]c3ccccc23)C(=O)N[C@@H](Cc2c[nH]cn2)C(N)=O)NC(=O)[C@H](CCC(N)=O)NC(=O)[C@H](Cc2ccccc2)NC(=O)[C@H](C)NC(=O)[C@H](C)NC(=O)[C@H](CCC(=O)O)NC(=O)[C@H](CC(=O)O)NC1=O [I-66, Ac-Ala-Asp-Ile-RdN-Asp-Glu-Ala-Ala-Phe-Gln-S7-Phe-Trp-His-NH2]",1090,1090,1.259,175,
"CC(=O)N1CCC[C@]12CC=CCCCC1(CCCC=CCCCCCC[C@@](C)(C(=O)N[C@@H](Cc3ccccc3)C(=O)N[C@@H](Cc3c[nH]c4ccccc34)C(=O)N[C@@H](CCC(N)=O)C(N)=O)NC(=O)[C@H](C(C)C)NC(=O)[C@H](Cc3cccs3)NC(=O)[C@H](C)NC(=O)[C@H](C)NC(=O)[C@H](CC(=O)O)NC(=O)[C@H](CC(=O)O)NC1=O)NC(=O)[C@H](C)NC(=O)[C@H](CC(=O)O)NC2=O (stereo partly drawn) [I-325, Ac-PL3-Asp-Ala-B5-Asp-Asp-Ala-Ala-2Thi-Val-S8-Phe-Trp-Gln-NH2]",1310,,,53,1.98
"CC(=O)N1CCC[C@]12CC=CCCCC1(CCCC=CCCCCCC[C@@](C)(C(=O)N[C@@H](Cc3c[nH]cn3)C(=O)N[C@@H](Cc3c[nH]c4ccccc34)C(=O)N[C@@H](CCC(N)=O)C(N)=O)NC(=O)[C@H](C(C)C)NC(=O)[C@H](Cc3ccccc3)NC(=O)[C@H](C)NC(=O)[C@H](C)NC(=O)[C@H](CC(=O)O)NC(=O)[C@H](CC(=O)O)NC1=O)NC(=O)[C@H](C)NC(=O)[C@H](CC(=O)O)NC2=O (stereo partly drawn) [I-285, Ac-PL3-Asp-Ala-B5-Asp-Asp-Ala-Ala-Phe-Val-S8-His-Trp-Gln-NH2]",5000,,,246,1.49
"CC(=O)N1CCC[C@]12CC=CCCCC1(CCCC=CCCCCCC[C@@](C)(C(=O)N[C@@H](Cc3ccccc3)C(=O)N[C@@H](Cc3c[nH]c4ccccc34)C(=O)N[C@@H](C)C(N)=O)NC(=O)[C@H](CCC(N)=O)NC(=O)[C@H](Cc3ccccc3)NC(=O)[C@H](C)NC(=O)[C@H](C)NC(=O)[C@H](CC(=O)O)NC(=O)[C@H](CC(=O)O)NC1=O)NC(=O)[C@H](C)NC(=O)[C@H](CC(=O)O)NC2=O (stereo partly drawn) [I-316, Ac-PL3-Asp-Ala-B5-Asp-Asp-Ala-Ala-Phe-Gln-S8-Phe-Trp-Ala-NH2]",3980,,,136,1.91
"CC(=O)N1CCC[C@]12CC=CCCCC1(CCCC=CCCCCCC[C@@](C)(C(=O)N[C@@H](Cc3ccccc3)C(=O)N[C@@H](Cc3c[nH]c4ccccc34)C(=O)N[C@@H](C)C(N)=O)NC(=O)[C@H](C(C)C)NC(=O)[C@H](Cc3ccccc3)NC(=O)[C@H](C)NC(=O)[C@H](C)NC(=O)[C@H](CC(=O)O)NC(=O)[C@H](CC(=O)O)NC1=O)NC(=O)[C@H](C)NC(=O)[C@H](CC(=O)O)NC2=O (stereo partly drawn) [I-291, Ac-PL3-Asp-Ala-B5-Asp-Asp-Ala-Ala-Phe-Val-S8-Phe-Trp-Ala-NH2]",3130,3130,2.195,327,
"CC(=O)N1CCC[C@]12CC=CCCCC1(CCCC=CCCCCCC[C@@](C)(C(=O)N[C@@H](Cc3ccccc3)C(=O)N[C@@H](Cc3c[nH]c4ccccc34)C(=O)N[C@@H](CCC(N)=O)C(N)=O)NC(=O)[C@H](C(C)C)NC(=O)[C@H](Cc3ccc(N)cc3)NC(=O)[C@H](C)NC(=O)[C@H](C)NC(=O)[C@H](CC(=O)O)NC(=O)[C@H](CC(=O)O)NC1=O)NC(=O)[C@H](C)NC(=O)[C@H](CC(=O)O)NC2=O (stereo partly drawn) [I-323, Ac-PL3-Asp-Ala-B5-Asp-Asp-Ala-Ala-4AmPhe-Val-S8-Phe-Trp-Gln-NH2]",3470,3470,1.953,92,
"CC(=O)N1CCC[C@]12CC=CCCCC1(CCCC=CCCCCCC[C@@](C)(C(=O)N[C@@H](Cc3ccccc3)C(=O)N[C@@H](Cc3c[nH]c4ccccc34)C(=O)NC(C)(C)C(N)=O)NC(=O)[C@H](C(C)C)NC(=O)[C@H](Cc3ccccc3)NC(=O)[C@H](C)NC(=O)[C@H](C)NC(=O)[C@H](CCC(=O)O)NC(=O)[C@H](CC(=O)O)NC1=O)NC(=O)[C@H](C)NC(=O)[C@H](CC(=O)O)NC2=O (stereo partly drawn) [I-134, Ac-PL3-Asp-Ala-B5-Asp-Glu-Ala-Ala-Phe-Val-S8-Phe-Trp-Aib-NH2]",2700,2700,2.426,99,
"CC(=O)N1CCC[C@]12CC=CCCCC1(CCCC=CCCCCCC[C@@](C)(C(=O)N[C@@H](Cc3ccccc3F)C(=O)N[C@@H](Cc3c[nH]c4ccccc34)C(=O)N[C@@H](CCC(N)=O)C(N)=O)NC(=O)[C@H](C(C)C)NC(=O)[C@H](Cc3ccccc3)NC(=O)[C@H](C)NC(=O)[C@H](C)NC(=O)[C@H](CC(=O)O)NC(=O)[C@H](CC(=O)O)NC1=O)NC(=O)[C@H](C)NC(=O)[C@H](CC(=O)O)NC2=O (stereo partly drawn) [I-318, Ac-PL3-Asp-Ala-B5-Asp-Asp-Ala-Ala-Phe-Val-S8-2FF-Trp-Gln-NH2]",4630,4630,2.001,121,
"CC(=O)N1CCC[C@]12CC=CCCCC1(CCCC=CCCCCCC[C@@](C)(C(=O)N[C@@H](Cc3ccccc3)C(=O)N[C@@H](Cc3c[nH]c4ccccc34)C(=O)N[C@@H](CCC(N)=O)C(N)=O)NC(=O)[C@H](C)NC(=O)[C@H](Cc3ccccc3)NC(=O)[C@H](C)NC(=O)[C@H](C)NC(=O)[C@H](CC(=O)O)NC(=O)[C@H](CC(=O)O)NC1=O)NC(=O)[C@H](C)NC(=O)[C@H](CC(=O)O)NC2=O (stereo partly drawn) [I-287, Ac-PL3-Asp-Ala-B5-Asp-Asp-Ala-Ala-Phe-Ala-S8-Phe-Trp-Gln-NH2]",4950,4950,1.875,534,
"CC(=O)N1CCC[C@]12CC=CCCCC1(CCCC=CCCCCCC[C@@](C)(C(=O)N[C@@H](Cc3ccccc3)C(=O)N[C@@H](Cc3c[nH]c4ccccc34)C(=O)N[C@@H](CCC(N)=O)C(N)=O)NC(=O)[C@H](C(C)C)NC(=O)[C@H](Cc3cccc(C)c3)NC(=O)[C@H](C)NC(=O)[C@H](C)NC(=O)[C@H](CCC(=O)O)NC(=O)[C@H](CC(=O)O)NC1=O)NC(=O)[C@H](C)NC(=O)[C@H](CC(=O)O)NC2=O (stereo partly drawn) [I-207, Ac-PL3-Asp-Ala-B5-Asp-Glu-Ala-Ala-3MeF-Val-S8-Phe-Trp-Gln-NH2]",1750,1750,2.054,143,
